Experimental findings from patent publication US20200289474A1, “METHODS OF TREATING PAIN WITH A THIAZOLINE ANTI-HYPERALGESIC” (priority 2019, published 2020) are described below.

Each structure is given as a SMILES string. Entries after “also recorded” stand apart in the source; their conditions may differ.

The subject of one data set is PN-mediated cytotoxicity. In words: cell-based assays of PN-mediated cytotoxicity.
The test system of data set [1] is incision-induced hyperalgesia. In words: mouse model of severe incision. In kind it is in vivo. To be noted: 10 mg/kg IP daily for 15 days; Days 1, 3, 6, 8, 10, 13, 15 and 21. An excerpt:
Two incisional pain models were used to assess Compound 1 effects on hyperalgesia. The first model is referred to as the Brennan model in which, under anesthesia, a 1 cm longitudinal incision to the skin and underlying fascia of a rat hindpaw is made. The second is a variation but is a more invasive procedure in which the skin and muscle are spread apart using forceps which creates a longer-lasting hypersensitivity.
In a mouse model of severe incision (tissue and muscle spread with forceps), animals were at baseline for mechanical thresholds prior to incision and then given a daily dose of Compound 1 (10 mg/kg IP) or vehicle for 15 days.

Data set [2] has as its system STZ-induced mechanical allodynia. In words: streptozotocin (STZ)-induced diabetic rats, first experiment. In kind it is in vivo, rat. The procedure: FIG. 14 illustrates non-limiting reversal of mechanical hypersensitivity by Compound 1 in a diabetic neuropathy model, in accordance with various embodiments. Streptozotocin (STZ) destroys insulin-producing cells and generates a diabetic phenotype in […]. Animals were dosed with STZ on day −7. By day 0 animals are hyperglycemic and hyperalgesic (day 0 BL).
Experiments were conducted to determine the effect of Compound 1 in streptozotocin (STZ)-induced diabetic rats. In the first experiment, after obtaining mechanical threshold baselines, STZ (50 mg/kg IV) was administered (Day −7). Two days later, blood glucose levels were measured and animals that were hyperglycemic (>250 mg/dL) continued in the study. On Day 0 the baseline for mechanical thresholds prior to dosing with test articles was established for the rats. Compound 1 (10, 30, and 100 mg/kg PO), gabapentin (100 mg/kg PO) or vehicle was then administered daily for 5 days. On Day 0 mechanical thresholds were obtained at 1, 3, and 6 h post-dose. On Day 1 mechanical thresholds were measured immediately prior to dosing and then 3 h post-dose. The same regimen was followed on Day 3.

Data set [3] in a line: effect of food on oral bioavailability in rats. In kind it is in vivo, rat. The procedure: The effect of food on oral bioavailability was determined.
Data set [4] can be described thus: dog pharmacokinetics, single PO (10 mg/kg) and IV (3 mg/kg) dose. The format is in vivo. The procedure:
The objective of the first single dose non-GLP study in dogs was to determine the pharmacokinetics and bioavailability of Compound 1 after a single oral (gavage) or single intravenous (IV) dose in dogs. The test article formulation was administered to three male dogs orally via gavage at a dose level of 10 mg/kg (dosing volume of 2 mL/kg body weight). Following a wash-out period of a minimum of three days, the same three dogs were administered the test article formulation via an IV bolus push over approximately 1-2 minutes at a dose level of 3 mg/kg (dosing volume of 0.5 mL/kg). The vehicle for oral gavage dosing was 0.5% HPMC; the vehicle for IV injection was sterile phosphate buffered saline (PBS; pH 7.4). […] Animals were returned to quarantine after the last blood collection.

Data set [5] is described as follows: stability in plasma. To be noted: rat plasma. The format is in vitro ADME.
Data set [6] can be described thus: stability in plasma. The format is in vitro ADME. Particulars: dog plasma.
Another data set addresses T1, OATP1B3 (Homo sapiens, UniProt Q9NPD5).
T1 construct: expressed in transfected cells; host or cells: HEK293 cells
T1 sequence (Q9NPD5 1-702): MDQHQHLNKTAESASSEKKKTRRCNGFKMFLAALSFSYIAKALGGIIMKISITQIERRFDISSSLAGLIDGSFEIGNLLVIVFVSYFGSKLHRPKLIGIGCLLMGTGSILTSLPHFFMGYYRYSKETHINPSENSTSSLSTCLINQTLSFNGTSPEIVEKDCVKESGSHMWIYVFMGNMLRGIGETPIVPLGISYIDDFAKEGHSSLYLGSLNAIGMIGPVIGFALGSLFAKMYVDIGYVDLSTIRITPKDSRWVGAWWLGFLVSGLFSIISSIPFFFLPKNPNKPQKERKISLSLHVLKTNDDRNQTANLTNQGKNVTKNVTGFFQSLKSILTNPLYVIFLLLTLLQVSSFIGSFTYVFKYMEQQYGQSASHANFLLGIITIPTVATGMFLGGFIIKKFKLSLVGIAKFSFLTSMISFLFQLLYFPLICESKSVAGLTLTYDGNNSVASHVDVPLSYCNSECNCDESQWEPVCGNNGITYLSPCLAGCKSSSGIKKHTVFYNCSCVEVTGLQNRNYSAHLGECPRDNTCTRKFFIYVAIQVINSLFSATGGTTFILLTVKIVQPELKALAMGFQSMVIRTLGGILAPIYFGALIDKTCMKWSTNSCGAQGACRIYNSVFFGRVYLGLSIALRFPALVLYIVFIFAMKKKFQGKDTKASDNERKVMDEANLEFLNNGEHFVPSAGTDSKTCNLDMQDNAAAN
Briefly: transporter inhibition, HEK293 cells, probe accumulation. The format is in vitro ADME.

In the next data set the target is T2, OAT1 (Homo sapiens, UniProt Q4U2R8).
T2 construct: expressed in transfected cells; host or cells: HEK293 cells
T2 sequence (Q4U2R8 1-563): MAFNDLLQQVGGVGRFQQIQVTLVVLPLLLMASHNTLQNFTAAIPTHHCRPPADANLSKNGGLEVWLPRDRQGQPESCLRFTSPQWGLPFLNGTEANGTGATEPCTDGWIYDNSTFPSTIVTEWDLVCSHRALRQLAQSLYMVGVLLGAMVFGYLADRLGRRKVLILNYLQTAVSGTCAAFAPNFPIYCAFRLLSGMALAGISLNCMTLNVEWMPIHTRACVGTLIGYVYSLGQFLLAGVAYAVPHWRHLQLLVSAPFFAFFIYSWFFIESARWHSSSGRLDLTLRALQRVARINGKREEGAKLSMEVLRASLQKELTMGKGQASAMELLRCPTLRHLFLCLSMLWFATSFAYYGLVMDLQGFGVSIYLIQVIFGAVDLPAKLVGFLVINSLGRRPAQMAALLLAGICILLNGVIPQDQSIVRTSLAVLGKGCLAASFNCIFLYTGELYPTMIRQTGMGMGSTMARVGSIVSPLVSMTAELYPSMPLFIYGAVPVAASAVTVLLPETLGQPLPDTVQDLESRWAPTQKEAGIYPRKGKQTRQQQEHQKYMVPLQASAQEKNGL
The data set is described as above. In kind it is in vitro ADME.

A further data set has as its system Caco-2 cells. In words: cytotoxicity by lactate dehydrogenase (LDH) release. In kind it is cell-based.
[7] abbreviates: male dogs, 10 mg/kg oral gavage.

Regarding `CC1(C)SC(Nc2ccccc2O)=N[C@@H]1C(=O)O.Cl` [Compound 1, (R)-2-(2-hydroxyphenylamino)-5,5-dimethyl-4,5-dihydrothiazole-4-carboxylic acid mono-hydrochloride], in the data set with PN-mediated cytotoxicity, the “effect in PN-mediated cytotoxicity” value is on record as “protective”. For the same compound, the “hyperalgesia (mechanical thresholds)” value in data set [1] is on record as “protected from hyperalgesia”. For the same compound, the “reversal of allodynia (mechanical thresholds)” value in data set [2] (10, 30, 100 mg/kg PO daily, subsequent days) was “statistically-significant”; in data set [2] (10, 30, 100 mg/kg PO, Day 0), “non-significant reversal of allodynia”. In addition, the “efficacy compared with gabapentin” value in data set [2] (repeated dosing, gabapentin 100 mg/kg PO, mono-hydrochloride) is given as “comparable to gabapentin”. For the same compound, the “effect on allodynia, STZ diabetic neuropathy model (summary)” value in [2] (streptozotocin-induced, mono-hydrochloride) is “alleviates allodynia; also recorded: blocks STZ-induced mechanical allodynia”. In data set [3] (10 mg/kg oral), the “peak plasma concentrations, fasted compared to fed” value was “significantly increased peak plasma concentrations”. Moreover, the “differences in pharmacokinetic properties, fed vs fasted” value in [3] (100 mg/kg oral) is listed as “No statistically significant differences”. For the same compound, the “epimerization in vivo (chiral column)” value in data set [4] (dog plasma) was “did not provide any evidence of epimerization”. In [4] (dog, plasma, male dogs, 10 mg/kg oral gavage, read-out: median t1/2 (converted)), the half-life is 1.4 h. Moreover, the tmax result in data set [4] (male dogs, 3 mg/kg IV bolus) was “about 5 minutes”; in data set [4] (setting [7]), “about 1 hour”. In addition, in data set [4] (setting [7]), the “average oral Cmax” value was determined as 12000 ng/mL. Further, in [4] (male dogs, 10 mg/kg oral vs 3 mg/kg IV), the mean oral bioavailability was 72%. In addition, the stability in plasma result in “stability in plasma [5]” and in “stability in plasma [6]” was “stable” in each case. Further, the “inhibition” value against OATP1B3 and at OAT1 was “does not inhibit” in each case. Also, the “cytotoxicity (LDH release)” value with Caco-2 cells is “less than 25%”.
